# Reference: ChEMBL document CHEMBL1201862, “PubChem BioAssay data set” (2004)
#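 The compound was tested at five concentrations on cells cultured in 96-well plates, with a 48-hour exposure period. The concentration for 50% growth inhibition is given as GI50.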 Activity calls are given as the source filed them. Cut-off read from the data, not from the text of the source: active = GI50 up to about 1.1 µM and inactive = higher.
# Legend:
# Experiment in all cases: inhibition of tumour cell growth, NCI panel, 48 h
# A498 = system: A498
# PC-3 = system: PC-3
# SW-620 = system: SW-620
# MDA-MB-435 = system: MDA-MB-435
# K562 = system: K562
# UACC-257 = system: UACC-257
# NCI-H522 = system: NCI-H522
# SNB-75 = system: SNB-75
# NCI/ADR-RES = system: NCI/ADR-RES
# SNB-19 = system: SNB-19
# SK-MEL-2 = system: SK-MEL-2
# 786-0 = system: 786-0
# U-251 = system: U-251
# Malme-3M = system: Malme-3M
# UO-31 = system: UO-31
# HL-60 = system: HL-60
# HCT-116 = system: HCT-116
# MDA-N = system: MDA-N
# Hs-578T = system: Hs-578T
# MCF7 = system: MCF7
# T47D = system: T47D
# EKVX = system: EKVX
# SF-539 = system: SF-539
# UACC-62 = system: UACC-62
# SK-MEL-5 = system: SK-MEL-5
# SK-OV-3 = system: SK-OV-3
# MDA-MB-231 = system: MDA-MB-231
# OVCAR-8 = system: OVCAR-8
# MOLT-4 = system: MOLT-4
# RPMI-8226 = system: RPMI-8226
# RXF 393 = system: RXF 393
# CCRF-CEM = system: CCRF-CEM
# HT-29 = system: HT-29
# SN12C = system: SN12C
# COLO 205 = system: COLO 205
# IGROV-1 = system: IGROV-1
# HOP-92 = system: HOP-92
# ACHN = system: ACHN
# CAKI-1 = system: CAKI-1
# TK-10 = system: TK-10
# A549 = system: A549
# KM12 = system: KM12
# DU-145 = system: DU-145
# NCI-H23 = system: NCI-H23
# LOX IMVI = system: LOX IMVI
# HCT-15 = system: HCT-15
# M14 = system: M14
# HCC 2998 = system: HCC 2998
# NCI-H226 = system: NCI-H226
# SF-268 = system: SF-268
# OVCAR-5 = system: OVCAR-5
# SF-295 = system: SF-295
# NCI-H460 = system: NCI-H460
# OVCAR-4 = system: OVCAR-4
# SK-MEL-28 = system: SK-MEL-28
# HOP-62 = system: HOP-62
# SR = system: SR
# OVCAR-3 = system: OVCAR-3
smiles,measurement,setting,value
CCOC(=O)C1C(c2ccco2)C2(C#N)C(=N)OC1(C)C2(C#N)C#N (stereo not drawn),GI50,A498,> 100 µM (inactive)
same,GI50,PC-3,> 100 µM (inactive)
same,GI50,SW-620,> 100 µM (inactive)
same,GI50,MDA-MB-435,> 100 µM (inactive)
same,GI50,K562,> 100 µM (inactive)
same,GI50,UACC-257,> 100 µM (inactive)
same,GI50,NCI-H522,> 100 µM (inactive)
same,GI50,SNB-75,57.7 µM (inactive)
same,GI50,NCI/ADR-RES,> 100 µM (inactive)
same,GI50,SNB-19,> 100 µM (inactive)
same,GI50,SK-MEL-2,> 100 µM (inactive)
same,GI50,786-0,> 100 µM (inactive)
same,GI50,U-251,> 100 µM (inactive)
same,GI50,Malme-3M,> 100 µM (inactive)
same,GI50,UO-31,> 100 µM (inactive)
same,GI50,HL-60,> 10 µM (inactive)
same,GI50,HCT-116,> 100 µM (inactive)
same,GI50,MDA-N,> 100 µM (inactive)
same,GI50,Hs-578T,> 100 µM (inactive)
same,GI50,MCF7,> 100 µM (inactive)
same,GI50,T47D,> 100 µM (inactive)
same,GI50,EKVX,> 100 µM (inactive)
same,GI50,SF-539,> 100 µM (inactive)
same,GI50,UACC-62,> 100 µM (inactive)
same,GI50,SK-MEL-5,> 100 µM (inactive)
same,GI50,SK-OV-3,> 100 µM (inactive)
same,GI50,MDA-MB-231,> 100 µM (inactive)
same,GI50,OVCAR-8,> 100 µM (inactive)
same,GI50,MOLT-4,> 100 µM (inactive)
same,GI50,RPMI-8226,> 100 µM (inactive)
same,GI50,RXF 393,> 100 µM (inactive)
same,GI50,CCRF-CEM,> 100 µM (inactive)
same,GI50,HT-29,> 100 µM (inactive)
same,GI50,SN12C,> 100 µM (inactive)
same,GI50,COLO 205,> 100 µM (inactive)
same,GI50,IGROV-1,> 100 µM (inactive)
same,GI50,HOP-92,> 100 µM (inactive)
same,GI50,ACHN,> 100 µM (inactive)
same,GI50,CAKI-1,> 100 µM (inactive)
same,GI50,TK-10,> 100 µM (inactive)
same,GI50,A549,> 100 µM (inactive)
same,GI50,KM12,> 100 µM (inactive)
same,GI50,DU-145,> 100 µM (inactive)
same,GI50,NCI-H23,> 100 µM (inactive)
same,GI50,LOX IMVI,> 100 µM (inactive)
same,GI50,HCT-15,33.1 µM
same,GI50,M14,> 100 µM (inactive)
same,GI50,HCC 2998,> 100 µM (inactive)
same,GI50,NCI-H226,> 100 µM (inactive)
same,GI50,SF-268,> 100 µM (inactive)
same,GI50,OVCAR-5,> 100 µM (inactive)
same,GI50,SF-295,> 100 µM (inactive)
N/N=C1\CCCc2c1no[n+]2[O-],GI50,A498,> 100 µM (inactive)
same,GI50,PC-3,> 100 µM (inactive)
same,GI50,SW-620,> 100 µM (inactive)
same,GI50,MDA-MB-435,> 100 µM (inactive)
same,GI50,K562,> 100 µM (inactive)
same,GI50,UACC-257,> 100 µM (inactive)
same,GI50,NCI-H522,> 100 µM (inactive)
same,GI50,SNB-75,> 100 µM (inactive)
same,GI50,NCI-H460,> 100 µM (inactive)
same,GI50,OVCAR-4,> 100 µM (inactive)
same,GI50,NCI/ADR-RES,> 100 µM (inactive)
same,GI50,SNB-19,> 100 µM (inactive)
same,GI50,SK-MEL-2,> 100 µM (inactive)
same,GI50,786-0,> 100 µM (inactive)
same,GI50,U-251,> 100 µM (inactive)
same,GI50,Malme-3M,> 100 µM (inactive)
same,GI50,UO-31,> 100 µM (inactive)
same,GI50,HL-60,> 100 µM (inactive)
same,GI50,HCT-116,> 100 µM (inactive)
same,GI50,MDA-N,> 100 µM (inactive)
same,GI50,Hs-578T,> 100 µM (inactive)
same,GI50,MCF7,> 100 µM (inactive)
same,GI50,EKVX,> 100 µM (inactive)
same,GI50,SF-539,> 100 µM (inactive)
same,GI50,UACC-62,> 100 µM (inactive)
same,GI50,SK-MEL-28,> 100 µM (inactive)
same,GI50,SK-MEL-5,> 100 µM (inactive)
same,GI50,HOP-62,> 100 µM (inactive)
same,GI50,SK-OV-3,> 100 µM (inactive)
same,GI50,MDA-MB-231,> 100 µM (inactive)
same,GI50,OVCAR-8,> 100 µM (inactive)
same,GI50,SR,> 100 µM (inactive)
same,GI50,MOLT-4,> 100 µM (inactive)
same,GI50,RPMI-8226,> 100 µM (inactive)
same,GI50,RXF 393,> 100 µM (inactive)
same,GI50,CCRF-CEM,> 100 µM (inactive)
same,GI50,OVCAR-3,> 100 µM (inactive)
same,GI50,HT-29,> 100 µM (inactive)
same,GI50,SN12C,> 100 µM (inactive)
same,GI50,COLO 205,> 100 µM (inactive)
same,GI50,IGROV-1,> 100 µM (inactive)
same,GI50,ACHN,> 100 µM (inactive)
same,GI50,CAKI-1,> 100 µM (inactive)
same,GI50,TK-10,> 100 µM (inactive)
same,GI50,A549,> 100 µM (inactive)
same,GI50,KM12,> 100 µM (inactive)
same,GI50,DU-145,> 100 µM (inactive)
same,GI50,NCI-H23,> 100 µM (inactive)
same,GI50,LOX IMVI,> 100 µM (inactive)
same,GI50,HCT-15,> 100 µM
same,GI50,M14,> 100 µM (inactive)
same,GI50,HCC 2998,> 100 µM (inactive)
same,GI50,NCI-H226,> 100 µM (inactive)
same,GI50,SF-268,> 100 µM (inactive)
same,GI50,OVCAR-5,> 100 µM (inactive)
same,GI50,SF-295,> 100 µM (inactive)
